Patent publication US20070203220A1, “Inhibitors Of PAI-1 For Treatment Of Muscular Conditions” (Wyeth, priority 2006, published 2007)

How the values were obtained:
mdx mice = assay: mdx mouse model of muscular dystrophy, drug in rodent chow for 9 months, muscle and body weights; format: in vivo; conditions: female mdx mice
From the text: The mdx mouse is a genetic model of Duchenne and Becker muscular dystrophies, providing a model system of muscle degeneration with aberrant regeneration. In this model, a nonsense mutation in the dystrophin gene results in the absence of dystrophin from the sarcolemma, and subsequent muscle fiber necrosis. Conversely, mice deficient in plasminogen activator inhibitor-1 have improved skeletal muscle regeneration. It was hypothesized that a small molecule PAI-1 inhibitor, such as, for example {1-Benzyl-5-[4-(trifluoromethoxy)phenyl]-1H-indol-3-yl}(oxo)acetic acid could potentially produce beneficial effects on the skeletal muscle of mdx mice.
Female mdx mice were purchased from a commercial vendor, and divided into 2 groups of equal body weight. {1-Benzyl-5-[4-(trifluoromethoxy)phenyl]-1H-indol-3-yl}(oxo)acetic acid was formulated into rodent chow at a concentration of 1 mg of drug per 1 gram of food (1 mg/g), and this mixture was formed into food pellets. A standard, pelleted rodent chow was used as the control diet. One group of mice received the drug-containing diet, while the other group received the control diet ad libitum. Each diet was coded, and the animal technicians remained blinded to the composition of the diets throughout the study.
Eight mice received either the control or drug-containing diet for 9 months. At the end of the study, the mice were killed, and muscle and body weights were measured. There was no change in body weight between groups (28.1±0.45 g for drug-treated vs. 28.3±0.69 g for Control). […] Because muscular dystrophy is a wasting disease, changes in muscle weight are routinely expressed per unit of body weight in preclinical studies. Therefore, the individual weight of each gastrocnemius muscle (mg) was expressed relative to total body weight (g). […] In drug-treated mice, muscle weight per unit of body weight was 5.02±0.13 mg/g, while in mice on the control diet, this value was 4.56 mg/g±0.20 (p=0.07).

melting point	Compound	difference in group means of gastrocnemius muscle weight, drug-treated vs control (mdx mice; drug in chow 1 mg/g) [%]	muscle weight per unit of body weight (gastrocnemius) (mdx mice; drug in chow 1 mg/g ad libitum, p=0.07 vs control) [mg/g]	gastrocnemius muscle weight (mdx mice; drug in chow 1 mg/g ad libitum, p=0.11 vs control) [mg]
213 to 214 °C (dec.)	CC(=O)c1ccc(-c2ccc3c(c2)c(C(=O)C(=O)O)cn3Cc2ccccc2)cc1			
	O=C(O)C(=O)c1cn(Cc2ccccc2)c2ccc(-c3ccc(OC(F)(F)F)cc3)cc12 [{1-Benzyl-5-[4-(trifluoromethoxy)phenyl]-1H-indol-3-yl}(oxo)acetic acid]	8.6	5.02 ± 0.13	141.0 ± 4.1
233 to 235 °C (dec.)	Cn1cc(C(=O)C(=O)O)c2ccc(-c3ccc(OC(F)(F)F)cc3)cc21			
195 to 196 °C	Cc1ccc(Cn2cc(C(=O)C(=O)O)c3cc(-c4ccccc4)ccc32)cc1			
